From US20220380764A1, “MOLECULAR GUIDE SYSTEM PEPTIDES AND USES THEREOF” (SRI International, priority 2019, published 2022)
Square brackets hold non-standard residues; d marks the D form. Primed or numbered codes have the meaning given here. Peptide text beside a SMILES is read from it. PEG12 = NCCOCCOCCOCCOCCOCCOCCOCCOCCOCCOCCOCCOCCC(=O)O; PEG11′ = not defined here

Legend:
[1] = test system: Non-Small Cell Lung Cancer; test: Cellular location of MGS, carcinomas and solid tumors; format: cell-based; settings: for MSG Code and Cellular Location: Table 2, Intracellular = uptake confirmed, exact compartment not determined; for Cellular Location: Table 3, Carcinomas and Solid Tumors
From the text: (§1) The FOX-Three platform is based on established phage display libraries containing 10^9-10^12 candidate peptide-based MGS members that can be rapidly screened against target cells and subcellular systems to identify specifically targeted MGSs (FIG. 2). Peptides are a well-understood class of biomolecule that are readily synthesized by biological processes and through man-made chemical processes. […] It can be applied to any cell type, regardless of knowledge about the molecular features of that cell, producing a lead MGS in 2-4 weeks. Selected peptide-based MGSs are then readily engineered for optimal performance.
(§2) The FOX-Three Platform has already been validated for targeting of cells and subcellular components. A number of validated MGSs are in various stages of development (Table 1) for a variety of cell targeting systems. Methods of conjugating a variety of payloads to the peptide MGSs have been established without disrupting their targeting ability. […] The FOX-Three screening process was recently refined to include subcellular location targeting as a selection criteria. MGSs have been isolated that accumulate in lysosomes, autophagosomes, and Golgi inside cancer cells, as well as target the plasma membrane.

[2] = test system: Carcinomas and Solid Tumors; test: In vivo targeting of MGS; settings: Table 3; homing to target cell in an animal model
From the text: as §2

[3] = test system: Lymphoma Cells; test: Cellular location of MGS, lymphoma and leukemia; format: cell-based; settings: Table 2
From the text: as §1

[4] = test system: Dendritic Cells; test: Cellular location of MGS, dendritic cells; format: cell-based; settings: Table 2
From the text: as §1

[5] = test system: H1993 Cells; test: siRNA internalization with and without MGS (FIG. 5); format: cell-based; settings: SA-647, 5′-Biotinylated siRNA+SA-647, 3′-Biotinylated siRNA+SA-647, alone or conjugated to the MGS
Method: With this objective, novel MGSs were applied to facilitate cell-specific delivery of siRNA. As previously mentioned, these MGSs have the unique ability to bind to specific epithelial-derived cancer cell types, and upon binding, triggers rapid internalization and trafficking to specific subcellular locations. The chemically optimized MGSs have 1-2 nM affinities for their cellular targets, serum stability greater than 48 hours, and approximately 50-1000-fold specificity for targeted cancer cells over normal control cells. […] Internalization experiments were first performed using H1993 cells. For this set of experiments, the group of bars at the far right are 5′-Biotinylated siRNA+SA-647 and 3′-Biotinylated siRNA+SA-647 without MGS. The middle and far left bar groups show SA-647, 5′-Biotinylated siRNA+SA-647, and 3′-Biotinylated siRNA+SA-647 conjugated to a first MGS (SRI_MGS1_V4, right) and a second MGS (SRI_MGS2_V4, middle).

[6] = test system: Cardiomyocytes; test: Cellular location of MGS, cardiomyocytes; format: cell-based; settings: Table 2
From the text: as §1

[7] = test system: H2009 Cells; test: SRI_MGS2_V4 uptake profile (effective dose, stoichiometry, rate of uptake); format: cell-based
From the text: (§3) 1. Example 1: Effective Dose, Stoichiometry, and Rate of Uptake for MGS 2

[8] = test system: H1993 Cells; test: as above; format: cell-based
From the text: as §3

[9] = test system: H1299 Cells; test: as above; format: cell-based
From the text: as §3

[10] = test system: H358 Cells; test: as above; format: cell-based
From the text: as §3

## FHAVPQSFYTAP (MGS peptide) [MGS_HCC15.2]
[1]
  MSG Code and Cellular Location: MGS_HCC15.2_Lysosomal
  Cellular Location: Lysosome
[2]
  In Vivo Targeting: Yes

## MDGATWWTQLDPLLVWEGET (MGS peptide) [MGS_H1993.5]
[1]
  MSG Code and Cellular Location: MGS_H1993.5_Intracellular

## SAKTAVSQRVWLPSHRGGEP (MGS peptide) [MGS_A20.1]
[3]
  MSG Code and Cellular Location: MGS_A20.1_PlasmaMembrane

## YAAWPASGAWTGTAPCSAGT (MGS peptide) [MGS_1299.2]
[1]
  MSG Code and Cellular Location: MGS_H1299.2_Intracellular
  Cellular Location: Lysosome
[2]
  In Vivo Targeting: Yes

## GPEDTSRAPENQQKTFHRRW (MGS peptide) [MGS_XS52.1]
[4]
  MSG Code and Cellular Location: MGS_XS52.1_Intacellular

## VSQTMRQTAVPLLWFWTGSL (MGS peptide) [MGS_H1299.1]
[1]
  MSG Code and Cellular Location: MGS_H1299.1_Intracellular

## ATEPRKQYATPRVFWTDAPG (MGS peptide) [MGS_HCC15.1]
[1]
  MSG Code and Cellular Location: MGS_HCC15.1_Intracellular
  Cellular Location: Lysosome
[2]
  In Vivo Targeting: Yes

## KSREHVNNSACPSKRITAAL (MGS peptide) [MGS_A20.2]
[3]
  MSG Code and Cellular Location: MGS_A20.2_ Plasma Membrane

## CH3CO-RGDLATLRQL-PEG11-YC-NH2 (Ac-RGDLATLRQL[PEG11′]YC-NH2) [SRI_MGS1_V4]
[5]
  molecules internalized per cell: approximately 25000 molecules internalized per cell

## FEEFYSRQSNTIPYPQQYKG (MGS peptide) [MGS_H2009.5]
[1]
  MSG Code and Cellular Location: MGS_H2009.5_ER/Lysosome

## EAMNSAEQSAAVVQWEKRRI (MGS peptide) [MGS_H460.1]
[1]
  MSG Code and Cellular Location: MGS_H460.1_PlasmaMembrane

## QEALEEWFWKMMPWSGPSGQ (MGS peptide) [MGS_H1993.3]
[1]
  MSG Code and Cellular Location: MGS_H1993.3_Intracellular

## AHTIDDEWASYHMQQWNSPP (MGS peptide) [MGS_H2009.4]
[1]
  MSG Code and Cellular Location: MGS_H2009.4_Golgi/ER

## FAAKRAEWWDPGQLWDAVWN (MGS peptide) [MGS_H1993.2]
[1]
  MSG Code and Cellular Location: MGS_H1993.2_Intracellular

## WLSEAGPVVTVRALRGTGSW (MGS peptide) [MGS_PCM.1]
[6]
  MSG Code and Cellular Location: MGS_PCM.1_Intracellular
[3]
  MSG Code and Cellular Location: MGS_PCM.1_ Plasma Membrane

## SVEYWGERMYYDVMESLGFS (MGS peptide) [MGS_H1993.1]
[1]
  MSG Code and Cellular Location: MGS_H1993.1_Lysosome

## YPGSPTQYPSSMHEYHSSSE (MGS peptide) [MGS_H2009.3]
[1]
  MSG Code and Cellular Location: MGS_H2009.3_Lysosome

## EHPWFNMWSWATQVQE (MGS peptide) [MGS_H2009.2]
[1]
  MSG Code and Cellular Location: MGS_H2009.2_Lysosome
  Cellular Location: Lysosome

## CC(=O)N[C@@H](Cc1ccc(O)cc1)C(=O)N[C@@H](C)C(=O)N[C@@H](C)C(=O)N[C@@H](Cc1c[nH]c2ccccc12)C(=O)N1CCC[C@H]1C(=O)N[C@@H](C)C(=O)N[C@@H](CO)C(=O)NCC(=O)N[C@@H](C)C(=O)N[C@@H](Cc1c[nH]c2ccccc12)C(=O)N[C@H](C(=O)NCCOCCOCCOCCOCCOCCOCCOCCOCCOCCOCCOCCOCCC(=O)N[C@@H](CS)C(N)=O)[C@@H](C)O [SRI_MGS2_V4, CH3CO-YAAWPASGAWT-PEG11-C-NH2] (Ac-YAAWPASGAWT[PEG12]C-NH2)
[7]; H2009 cells, 6 H with constant incubation of 20 nM MGS
  Molecules Internalized, 6 H: 49500 ± 2230 molecules
[7]; H2009 cells, average number of MGS molecules internalized per cell at saturation concentration at 1 H
  Saturation (molecules): 68300 ± 3030 molecules
[7]; H2009 cells, rate of uptake
  t1/2: 13 min
[7]; ratio of MGS uptake on H2009 vs. normal human bronchial epithelial cell line (HBEC)
  Specificity: 560
[8]; H1993 cells, 6 H with constant incubation of 20 nM MGS
  Molecules Internalized, 6 H: 134300 ± 6300 molecules
[8]; H1993 cells, average number of MGS molecules internalized per cell at saturation concentration at 1 H
  Saturation (molecules): 141600 ± 28200 molecules
[8]; H1993 cells, rate of uptake
  t1/2: 12 min
[8]; ratio of MGS uptake on H1993 vs. normal human bronchial epithelial cell line (HBEC)
  Specificity: 2300
[9]; H1299 cells, 6 H with constant incubation of 20 nM MGS
  Molecules Internalized, 6 H: 125500 ± 5430 molecules
[9]; H1299 cells, average number of MGS molecules internalized per cell at saturation concentration at 1 H
  Saturation (molecules): 112800 ± 15500 molecules
[9]; H1299 cells, rate of uptake
  t1/2: 37 min
[9]; ratio of MGS uptake on H1299 vs. normal human bronchial epithelial cell line (HBEC)
  Specificity: 1400
[10]; H358 cells, 6 H with constant incubation of 20 nM MGS
  Molecules Internalized, 6 H: 97100 ± 4830 molecules
[10]; H358 cells, average number of MGS molecules internalized per cell at saturation concentration at 1 H
  Saturation (molecules): 99900 ± 9640 molecules
[10]; H358 cells, rate of uptake
  t1/2: 11 min
[10]; ratio of MGS uptake on H358 vs. normal human bronchial epithelial cell line (HBEC)
  Specificity: 1100

## LQWRRDDNVHNFGVWARYRL (MGS peptide) [MGS_1299.3]
[1]
  MSG Code and Cellular Location: MGS_H1299.3_Autophagosomes
  Cellular Location: Autophagasome
[2]
  In Vivo Targeting: Yes

## SADWFQGPAEWLLEGWMGPL (MGS peptide) [MGS_H1993.6]
[1]
  MSG Code and Cellular Location: MGS_H1993.6_Intracellular

## RGDLATLRQLAQEDGVVGVR (MGS peptide) [MGS_H2009.1]
[1]
  MSG Code and Cellular Location: MGS_H2009.1_Golgi
  Cellular Location: Golgi
[2]
  In Vivo Targeting: Yes

## MTVCNASQRQAHAQATAVSL (MGS peptide) [MGS_A549.1]
[1]
  MSG Code and Cellular Location: MGS_A549.1_Intracellular

## TWTDFGQWPWPFGAEGTRAF (MGS peptide) [MGS_H1993.4]
[1]
  MSG Code and Cellular Location: MGS_H1993.4_Pre-mitotic cells
